Data taken from ChEMBL document CHEMBL4376895.
Activity calls are given as the source filed them. No cut-off for these calls is given here. Positions of bridges follow the written chain, without caps; N, C: chain ends. Residues, ends and D or L forms follow the SMILES beside them.

What was measured:
Format in all cases: cell-based
[1] = target: T1, Neuronal acetylcholine receptor; alpha4/beta2 (Rattus norvegicus) (UniProt P09483+P12390); test: Antagonist activity at rat alpha4beta2 nAChR expressed in Xenopus laevis oocytes assessed as inhibition of Ach-induced response up to 10 uM at -70 mV holding potential by two electrode voltage-clamp assay
[2] = target: T2, Neuronal acetylcholine receptor; alpha4/beta4 (Rattus norvegicus) (UniProt P09483+P12392); test: Antagonist activity at rat alpha4beta4 nAChR expressed in Xenopus laevis oocytes assessed as inhibition of Ach-induced response up to 10 uM at -70 mV holding potential by two electrode voltage-clamp assay
[3] = target: T3, Neuronal acetylcholine receptor; alpha2/beta4 (Rattus norvegicus) (UniProt P12389+P12392); test: Antagonist activity at rat alpha2beta4 nAChR expressed in Xenopus laevis oocytes assessed as inhibition of Ach-induced response up to 10 uM at -70 mV holding potential by two electrode voltage-clamp assay
[4] = target: T4, Neuronal acetylcholine receptor; alpha9/alpha10 (Homo sapiens) (UniProt Q9UGM1+Q9GZZ6); test: Antagonist activity at human alpha9alpha10 nAChR expressed in Xenopus laevis oocytes assessed as inhibition of Ach-induced response at 50 nM at -70 mV holding potential by two electrode voltage-clamp assay relative to control
[5] = target: T4, Neuronal acetylcholine receptor; alpha9/alpha10 (Homo sapiens); test: Antagonist activity at human alpha9alpha10 nAChR expressed in Xenopus laevis oocytes assessed as inhibition of Ach-induced response at 100 nM at -70 mV holding potential by two electrode voltage-clamp assay relative to control
[6] = target: Nicotinic acetylcholine receptor alpha9/alpha10 (Rattus norvegicus) (UniProt P43144+Q9JLB5); test: Antagonist activity at rat alpha9alpha10 nAChR expressed in Xenopus laevis oocytes assessed as inhibition of Ach-induced response at 10 nM at -70 mV holding potential preincubated for 5 mins followed by compound washout by two electrode voltage-clamp assay
[7] = target: T3, Neuronal acetylcholine receptor; alpha2/beta4 (Rattus norvegicus); test: Antagonist activity at rat alpha2beta4 nAChR expressed in Xenopus laevis oocytes assessed as inhibition of Ach-induced response at >10 uM at -70 mV holding potential by two electrode voltage-clamp assay
[8] = target: T2, Neuronal acetylcholine receptor; alpha4/beta4 (Rattus norvegicus); test: Antagonist activity at rat alpha4beta4 nAChR expressed in Xenopus laevis oocytes assessed as inhibition of Ach-induced response at >10 uM at -70 mV holding potential by two electrode voltage-clamp assay
[9] = target: T1, Neuronal acetylcholine receptor; alpha4/beta2 (Rattus norvegicus); test: Antagonist activity at rat alpha4beta2 nAChR expressed in Xenopus laevis oocytes assessed as inhibition of Ach-induced response at >10 uM at -70 mV holding potential by two electrode voltage-clamp assay

Row | Compound | inhibition [1] | inhibition [2] | inhibition [3] | inhibition [4] [%] | inhibition [5] [%] | inhibition [6] | inhibition [7] | inhibition [8] | inhibition [9]
1 | H-TSRSSGRYSRSPYDRRRRYARRITDAAV-OH | inactive | inactive | inactive | – | – | – | – | – | –
2 | H-TSRSSGRYSRSPYDRRRRYSRRITDASV-OH | inactive | inactive | inactive | – | – | – | – | – | –
3 | CC[C@H](C)[C@H](NC(=O)[C@H](CCCNC(=N)N)NC(=O)[C@H](CCCNC(=N)N)NC(=O)[C@H](CO)NC(=O)[C@H](Cc1ccc(O)cc1)NC(=O)[C@H](CCCNC(=N)N)NC(=O)[C@H](CCCNC(=N)N)NC(=O)[C@H](CCCNC(=N)N)NC(=O)[C@H](CCCNC(=N)N)NC(=O)[C@H](CC(=O)O)NC(=O)[C@H](Cc1ccc(O)cc1)NC(=O)[C@@H]1CCCN1C(=O)[C@H](CO)NC(=O)[C@H](CCCNC(=N)N)NC(=O)[C@@H]1CSSC[C@H](NC(=O)[C@@H](N)[C@@H](C)O)C(=O)N[C@@H](CCCNC(=N)N)C(=O)N[C@@H](CO)C(=O)N[C@@H](CO)C(=O)NCC(=O)N[C@@H](CCCNC(=N)N)C(=O)N[C@@H](Cc2ccc(O)cc2)C(=O)N1)C(=O)N[C@H](C(=O)N[C@@H](CC(=O)O)C(=O)N[C@@H](C)C(=O)N[C@@H](CO)C(=O)N[C@H](C(=O)O)C(C)C)[C@@H](C)O | inactive | inactive | inactive | – | – | – | – | – | –
4 | CC[C@H](C)[C@@H]1NC(=O)[C@H](CCCNC(=N)N)NC(=O)[C@H](CCCNC(=N)N)NC(=O)[C@H](C)NC(=O)[C@H](Cc2ccc(O)cc2)NC(=O)[C@H](CCCNC(=N)N)NC(=O)[C@H](CCCNC(=N)N)NC(=O)[C@H](CCCNC(=N)N)NC(=O)[C@H](CCCNC(=N)N)NC(=O)[C@H](CC(=O)O)NC(=O)[C@H](Cc2ccc(O)cc2)NC(=O)[C@@H]2CCCN2C(=O)[C@H](CO)NC(=O)[C@H](CCCNC(=N)N)NC(=O)[C@H](C)NC(=O)[C@H](Cc2ccc(O)cc2)NC(=O)[C@H](CCCNC(=N)N)NC(=O)CNC(=O)[C@H](CO)NC(=O)[C@H](CO)NC(=O)[C@H](CCCNC(=N)N)NC(=O)[C@@H](NC(=O)[C@@H](N)[C@@H](C)O)CSSC[C@@H](C(=O)N[C@H](C(=O)O)C(C)C)NC(=O)[C@H](C)NC(=O)[C@H](CC(=O)O)NC(=O)[C@H]([C@@H](C)O)NC1=O (H-TCRSSGRYARSPYDRRRRYARRITDACV-OH; disulfide 2-27) | inactive | inactive | inactive | – | – | – | – | – | –
5 | CC[C@H](C)[C@H](NC(=O)[C@H](CCCNC(=N)N)NC(=O)[C@H](CCCNC(=N)N)NC(=O)[C@@H]1CSSC[C@H](NC(=O)[C@H](Cc2ccc(O)cc2)NC(=O)[C@H](CCCNC(=N)N)NC(=O)CNC(=O)[C@H](CO)NC(=O)[C@H](CO)NC(=O)[C@H](CCCNC(=N)N)NC(=O)[C@H](C)NC(=O)[C@@H](N)[C@@H](C)O)C(=O)N[C@@H](CCCNC(=N)N)C(=O)N[C@@H](CO)C(=O)N2CCC[C@H]2C(=O)N[C@@H](Cc2ccc(O)cc2)C(=O)N[C@@H](CC(=O)O)C(=O)N[C@@H](CCCNC(=N)N)C(=O)N[C@@H](CCCNC(=N)N)C(=O)N[C@@H](CCCNC(=N)N)C(=O)N[C@@H](CCCNC(=N)N)C(=O)N[C@@H](Cc2ccc(O)cc2)C(=O)N1)C(=O)N[C@H](C(=O)N[C@@H](CC(=O)O)C(=O)N[C@@H](C)C(=O)N[C@@H](C)C(=O)N[C@H](C(=O)O)C(C)C)[C@@H](C)O | inactive | inactive | inactive | – | – | – | – | – | –
6 | CC[C@H](C)[C@H](NC(=O)[C@H](CCCNC(=N)N)NC(=O)[C@H](CCCNC(=N)N)NC(=O)[C@@H]1CSSC[C@H](NC(=O)[C@H](Cc2ccc(O)cc2)NC(=O)[C@H](CCCNC(=N)N)NC(=O)CNC(=O)[C@H](CO)NC(=O)[C@H](CO)NC(=O)[C@H](CCCNC(=N)N)NC(=O)[C@H](CO)NC(=O)[C@@H](N)[C@@H](C)O)C(=O)N[C@@H](CCCNC(=N)N)C(=O)N[C@@H](CO)C(=O)N2CCC[C@H]2C(=O)N[C@@H](Cc2ccc(O)cc2)C(=O)N[C@@H](CC(=O)O)C(=O)N[C@@H](CCCNC(=N)N)C(=O)N[C@@H](CCCNC(=N)N)C(=O)N[C@@H](CCCNC(=N)N)C(=O)N[C@@H](CCCNC(=N)N)C(=O)N[C@@H](Cc2ccc(O)cc2)C(=O)N1)C(=O)N[C@H](C(=O)N[C@@H](CC(=O)O)C(=O)N[C@@H](C)C(=O)N[C@@H](CO)C(=O)N[C@H](C(=O)O)C(C)C)[C@@H](C)O | inactive | inactive | inactive | – | – | – | – | – | –
7 | CC[C@H](C)[C@@H]1NC(=O)[C@H](CCCNC(=N)N)NC(=O)[C@H](CCCNC(=N)N)NC(=O)[C@H](CO)NC(=O)[C@H](Cc2ccc(O)cc2)NC(=O)[C@H](CCCNC(=N)N)NC(=O)[C@H](CCCNC(=N)N)NC(=O)[C@H](CCCNC(=N)N)NC(=O)[C@H](CCCNC(=N)N)NC(=O)[C@H](CC(=O)O)NC(=O)[C@H](Cc2ccc(O)cc2)NC(=O)[C@@H]2CCCN2C(=O)[C@H](CO)NC(=O)[C@H](CCCNC(=N)N)NC(=O)[C@H](CO)NC(=O)[C@H](Cc2ccc(O)cc2)NC(=O)[C@H](CCCNC(=N)N)NC(=O)CNC(=O)[C@H](CO)NC(=O)[C@H](CO)NC(=O)[C@H](CCCNC(=N)N)NC(=O)[C@@H](NC(=O)[C@@H](N)[C@@H](C)O)CSSC[C@@H](C(=O)N[C@H](C(=O)O)C(C)C)NC(=O)[C@H](C)NC(=O)[C@H](CC(=O)O)NC(=O)[C@H]([C@@H](C)O)NC1=O (H-TCRSSGRYSRSPYDRRRRYSRRITDACV-OH; disulfide 2-27) | inactive | inactive | inactive | – | – | – | – | – | –
8 | H-TARSSGRYARSPYDRRRRYSRRITDASV-OH | inactive | inactive | inactive | 74 | 100 | Active | Active | Active | Active
9 | H-TARSSGRYARSPYDRRRRYARRITDAAV-OH | inactive | inactive | inactive | – | – | – | – | – | –
10 | CC[C@H](C)[C@@H]1NC(=O)[C@H](CCCNC(=N)N)NC(=O)[C@H](CCCNC(=N)N)NC(=O)[C@@H](NC(=O)[C@H](Cc2ccc(O)cc2)NC(=O)[C@H](CCCNC(=N)N)NC(=O)[C@H](CCCNC(=N)N)NC(=O)[C@H](CCCNC(=N)N)NC(=O)[C@H](CCCNC(=N)N)NC(=O)[C@H](CC(=O)O)NC(=O)[C@H](Cc2ccc(O)cc2)NC(=O)[C@@H]2CCCN2C(=O)[C@H](CO)NC(=O)[C@H](CCCNC(=N)N)NC(=O)[C@H](CO)NC(=O)[C@H](Cc2ccc(O)cc2)NC(=O)[C@H](CCCNC(=N)N)NC(=O)CNC(=O)[C@H](CO)NC(=O)[C@H](CO)NC(=O)[C@H](CCCNC(=N)N)NC(=O)[C@H](CO)NC(=O)[C@@H](N)[C@@H](C)O)CSSC[C@@H](C(=O)N[C@H](C(=O)O)C(C)C)NC(=O)[C@H](C)NC(=O)[C@H](CC(=O)O)NC(=O)[C@H]([C@@H](C)O)NC1=O (H-TSRSSGRYSRSPYDRRRRYCRRITDACV-OH; disulfide 20-27) | inactive | inactive | inactive | – | – | – | – | – | –
11 | CC[C@H](C)[C@H](NC(=O)[C@H](CCCNC(=N)N)NC(=O)[C@H](CCCNC(=N)N)NC(=O)[C@H](C)NC(=O)[C@H](Cc1ccc(O)cc1)NC(=O)[C@H](CCCNC(=N)N)NC(=O)[C@H](CCCNC(=N)N)NC(=O)[C@H](CCCNC(=N)N)NC(=O)[C@H](CCCNC(=N)N)NC(=O)[C@H](CC(=O)O)NC(=O)[C@H](Cc1ccc(O)cc1)NC(=O)[C@@H]1CCCN1C(=O)[C@H](CO)NC(=O)[C@H](CCCNC(=N)N)NC(=O)[C@@H]1CSSC[C@H](NC(=O)[C@@H](N)[C@@H](C)O)C(=O)N[C@@H](CCCNC(=N)N)C(=O)N[C@@H](CO)C(=O)N[C@@H](CO)C(=O)NCC(=O)N[C@@H](CCCNC(=N)N)C(=O)N[C@@H](Cc2ccc(O)cc2)C(=O)N1)C(=O)N[C@H](C(=O)N[C@@H](CC(=O)O)C(=O)N[C@@H](C)C(=O)N[C@@H](C)C(=O)N[C@H](C(=O)O)C(C)C)[C@@H](C)O | inactive | inactive | inactive | – | – | – | – | – | –
12 | CC[C@H](C)[C@@H]1NC(=O)[C@H](CCCNC(=N)N)NC(=O)[C@H](CCCNC(=N)N)NC(=O)[C@@H](NC(=O)[C@H](Cc2ccc(O)cc2)NC(=O)[C@H](CCCNC(=N)N)NC(=O)[C@H](CCCNC(=N)N)NC(=O)[C@H](CCCNC(=N)N)NC(=O)[C@H](CCCNC(=N)N)NC(=O)[C@H](CC(=O)O)NC(=O)[C@H](Cc2ccc(O)cc2)NC(=O)[C@@H]2CCCN2C(=O)[C@H](CO)NC(=O)[C@H](CCCNC(=N)N)NC(=O)[C@H](C)NC(=O)[C@H](Cc2ccc(O)cc2)NC(=O)[C@H](CCCNC(=N)N)NC(=O)CNC(=O)[C@H](CO)NC(=O)[C@H](CO)NC(=O)[C@H](CCCNC(=N)N)NC(=O)[C@H](C)NC(=O)[C@@H](N)[C@@H](C)O)CSSC[C@@H](C(=O)N[C@H](C(=O)O)C(C)C)NC(=O)[C@H](C)NC(=O)[C@H](CC(=O)O)NC(=O)[C@H]([C@@H](C)O)NC1=O (H-TARSSGRYARSPYDRRRRYCRRITDACV-OH; disulfide 20-27) | inactive | inactive | inactive | – | – | – | – | – | –
